Reference: PubChem BioAssay (NCI)
Where “and” joins values, the source holds several entries; their conditions need not be identical. Equal values may be shown once.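 Each compound was tested at five concentrations against cells in 96-well plates for 48 hours. GI50 = concentration required for 50% inhibition of growth. At the TGI there is no net growth.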

What was measured:
Assay in all cases: NCI tumour cell line growth inhibition, 48 h
NCI/ADR-RES ovarian = test system: NCI/ADR-RES ovarian
CCRF-CEM leukemia = test system: CCRF-CEM leukemia
NCI-H23 lung = test system: NCI-H23 lung
MDA-MB-231 breast = test system: MDA-MB-231 breast
A549 NSCLC = test system: A549 NSCLC
K-562 leukemia = test system: K-562 leukemia
OVCAR-5 ovarian = test system: OVCAR-5 ovarian
HS 578T breast = test system: HS 578T breast
SF-268 CNS = test system: SF-268 CNS
OVCAR-8 ovarian = test system: OVCAR-8 ovarian

Row | SMILES | GI50 (NCI/ADR-RES ovarian) | TGI (NCI/ADR-RES ovarian) | GI50 (CCRF-CEM leukemia) [µM] | TGI (CCRF-CEM leukemia) | GI50 (NCI-H23 lung) | TGI (NCI-H23 lung) | GI50 (MDA-MB-231 breast) [µM] | TGI (MDA-MB-231 breast) | GI50 (A549 NSCLC) | TGI (A549 NSCLC) | GI50 (K-562 leukemia) [µM] | TGI (K-562 leukemia) | GI50 (OVCAR-5 ovarian) | TGI (OVCAR-5 ovarian) | GI50 (HS 578T breast) | TGI (HS 578T breast) | TGI (SF-268 CNS) | TGI (OVCAR-8 ovarian) | GI50 (SF-268 CNS) | GI50 (OVCAR-8 ovarian)
1 | O=C1C(Cl)=C(Nc2ccc(S(=O)(=O)c3ccc(NC4=C(Cl)C(=O)c5ccccc5C4=O)cc3)cc2)C(=O)c2ccccc21 | 3.68 µM | 35.2 µM | 1.9 | > 100 µM | 1.81 µM | 3.63 µM | 1.61 | 3.51 µM | 5.71 µM | 38.8 µM | 1.63 | 5.24 µM | 1.92 µM | 3.81 µM | 1.82 µM | 5.85 µM | – | – | – | –
2 | O=c1ccc(N=Nc2ccccc2)ccc1O | – | 29.6 µM | – | – | – | 31.5 µM | – | 36.9 µM | – | 27.8 µM | – | > 100 µM | – | 47.4 µM | – | 35.3 µM | > 100 µM | 43.9 µM | – | –
3 | O=C1CCC(c2ccccc2)=NN1c1nc2ccccc2s1 | – | 76.6 µM | – | 71.8 µM | – | > 84.6 µM | – | 55.9 µM | – | > 100 µM | – | > 100 µM | – | > 100 µM | – | > 100 µM | > 83 µM | > 100 µM | – | –
4 | CC(C)=C[C@@H]1C[C@H](C)[C@H]2CC[C@H](C)c3c(O)c(OC4OC(C)C(O)C(O)C4O)c(C)c1c32 (stereo partly specified) | 0.648 µM | 16.8 µM | 12.8 | 26.3 µM | 2.21 µM | 20 µM | 13.2 | 26.6 µM | 11.9 µM | 24.2 µM | 3.97 | 19.6 µM | 10.5 µM | 23.2 µM | 11.6 µM | 27.5 µM | 31.3 µM | 28 µM | 16 µM | 14.6 µM
5 | Fc1ccccc1CN1COc2c(cc(Cl)c3cccnc23)C1 | – | 0.54 µM | – | – | – | 9.31 µM | – | 4.3 µM | – | 10.9 µM | – | 8.41 µM | – | 15.3 µM | – | 20.8 µM | 20.3 µM | 10.7 µM | – | –
6 | O=C(Nc1ccn(C2CC(O)C(COC(c3ccccc3)(c3ccccc3)c3ccccc3)O2)c(=O)n1)c1ccccc1 (stereo unspecified) | – | 5.25 µM | – | 6.2 µM | – | 3.34 µM | – | 7.5 µM | – | 16.7 µM | – | 7.3 µM | – | 3.53 µM | – | 5.91 µM | 20 µM | 3.71 µM | – | –
7 | CC[C@H](C)[C@H](NC(=O)C12C3C4C1C1C2C3C41NC)C(=O)N(C)[C@H](C[C@@H](OC(C)=O)c1nc(C(=O)N[C@@H](Cc2ccccc2)C[C@H](C)C(=O)OC)cs1)C(C)C (stereo partly specified) | 8.15 µM | > 14.3 µM | 0.445 | > 14.3 µM | 0.705 µM | > 14.3 µM | 0.798 | > 13 µM | 4.61 µM | > 14.3 µM | 0.219 | > 14.3 µM | > 7.57 µM | > 14.3 µM | 0.693 µM | > 11.9 µM | > 14.3 µM | > 14.3 µM | 1.3 µM | 0.717 µM
8 | CCCCCCCCCCCCCCCCCc1nc(Cl)nc(Cl)c1Cl | – | > 100 µM | – | > 100 µM | – | > 100 µM | – | > 100 µM | – | > 100 µM | – | > 100 µM | – | > 100 µM | – | > 100 µM | > 100 µM | > 100 µM | – | –
9 | NNc1c(C(N)=O)c2c(N)ncnc2n1C1OC(CO)C(O)C1O (stereo unspecified) | 0.0179 µM and 0.0374 µM | 0.289 µM and 0.754 µM | < 0.0146 | < 0.0483 µM and 0.12 µM | 0.0268 µM and 0.0507 µM | 0.266 µM and 0.319 µM | 0.086 | 0.491 µM and 2.23 µM | 0.0336 µM and 0.0924 µM | 12.7 µM and 3.44 µM | 0.0199 | 16.3 µM and > 100 µM | 0.0578 µM and 0.309 µM | 1.1 µM and 7.56 µM | 0.056 µM and 0.107 µM | 0.826 µM and 2.38 µM | 1.05 µM and 1.22 µM | 11.5 µM and 3.51 µM | 0.0451 µM and 0.0928 µM | 0.0178 µM and 0.0343 µM
10 | CCn1cc(C(=O)O)c(=O)c2cc(F)c(N3CCN(S(=O)(=O)c4ccc(Cl)cc4Cl)CC3)cc21 | 3.28 µM | 28 µM | 3.03 | > 100 µM | 2.33 µM | 5.97 µM | 1.88 | 4.7 µM | 2.89 µM | > 100 µM | 4 | > 100 µM | 3.43 µM | > 100 µM | 2.53 µM | 7.66 µM | > 100 µM | 29 µM | 3.86 µM | 3.3 µM
11 | Nc1nc(SCc2ccccc2CCl)c2[nH]cnc2n1 | 20.9 µM | 67.7 µM | 28.5 | > 100 µM | 15.7 µM | 36.5 µM | 14.2 | 38 µM | – | – | 32.4 | > 100 µM | 18.9 µM | 34.6 µM | 18.3 µM | 97.2 µM | 25.6 µM | > 100 µM | 12.6 µM | 28.2 µM
12 | O=C(/C=C/c1ccc(O)c(O)c1)N1CCN(c2ccc(Cl)cc2)CC1 | 4.61 µM | 32.9 µM | 1.96 | 45.1 µM | 5.21 µM | 32 µM | 5.28 | 35.6 µM | 5.7 µM | 60.2 µM | 4.77 | 58.7 µM | 13.3 µM | 85.7 µM | 8.04 µM | 49.4 µM | 42.6 µM | 44.4 µM | 4.92 µM | 5.46 µM
13 | Cc1cc(N2CCC(N3CCCC3)CC2)nc(/N=C(\N)Nc2ccc(Cl)c(Cl)c2)n1 | 2.58 µM | 7.66 µM | 3.28 | > 100 µM | 2.12 µM | 6.61 µM | 1.67 | 3.64 µM | 1.78 µM | 3.42 µM | 2.58 | > 100 µM | 1.77 µM | 3.79 µM | 1.91 µM | 5.06 µM | 6.66 µM | 3.77 µM | 2.34 µM | 1.91 µM
14 | C=CCC(N[C@@H](CO)c1ccccc1)c1ccc2ccccc2n1 (stereo partly specified) | > 100 µM | > 100 µM | 46.1 | > 100 µM | > 100 µM | > 100 µM | 45.8 | > 100 µM | > 100 µM | > 100 µM | 36.2 | > 100 µM | > 100 µM | > 100 µM | > 100 µM | > 100 µM | – | > 100 µM | – | > 100 µM
15 | C/C=C/C=C/c1cc2cc3c(c(O)c2c(=O)[nH]1)C1(CC3)C(O)=c2c(=O)c3c(=O)cc(OC)c(=O)c=3c(=O)c2=C1O (stereo unspecified) | – | 37.9 µM | – | 1.13 µM and 11.2 µM | – | 10.1 µM and 8.27 µM | – | 4.15 µM | 0.183 µM and 1.4 µM | 4.69 µM and 13.6 µM | – | > 38.4 µM | – | – | – | 26.7 µM | 17.6 µM and 40.3 µM | 5.15 µM and 15.5 µM | – | 0.145 µM and 0.902 µM
